Results on six compounds are retold here after ChEMBL document CHEMBL5584354, “Impact of Conjugation of the Reactive Oxygen Species (ROS)-Generating Catalytic Moiety with Membrane-Active Antimicrobial Peptoids: Promoting Multitarget Mechanism and Enhancing Selectivity” (J Med Chem, 2024).

Converted amounts (≈) assume the structure as drawn. Non-standard residues stand in square brackets, D forms with d. Residues, ends and D or L forms follow the SMILES beside them. Gly(N(CH2)2(3-indolyl)) = O=C(O)CNCCc1c[nH]c2ccccc12; Nspe = C[C@H](NCC(=O)O)c1ccccc1; Nphe = O=C(O)CNCc1ccccc1; Nlys = NCCCCNCC(=O)O Where only a bound is given, the exact number is not on record here.

Series [1] has as its system Staphylococcus aureus. Put plainly: Antibacterial activity against Staphylococcus aureus ATCC 25923 assessed as inhibition of bacterial growth incubated for 24 hrs by broth dilution method. Type of series: functional.
Series [2] is described as follows: Hemolytic activity in male Sprague-Dawley rat erythrocytes at 100 uM incubated for 1 hr by absorbance based method relative to control. The conditions noted are these: read-out: Activity. In kind it is toxicity, cell-based, Erythrocyte.
Series [3] can be described thus: Selectivity index, ratio of HC10 for hemolytic activity in male Sprague-Dawley rat erythrocytes to MIC for antibacterial activity against Escherichia coli ATCC 25922. Type of series: toxicity. The conditions noted are these: read-out: Selectivity Index.
Series [4] can be described thus: Hemolytic activity in male Sprague-Dawley rat erythrocytes assessed as concentration required for 50% hemolysis incubated for 1 hr by absorbance based method. In kind it is toxicity, cell-based, Erythrocyte.
The nature of series [5]: Hemolytic activity in male Sprague-Dawley rat erythrocytes at 50 uM incubated for 1 hr by absorbance based method relative to control. Type of series: toxicity, cell-based, Erythrocyte. The conditions noted are these: read-out: Activity.
The subject of series [6] is Escherichia coli. The series is described as follows: Antibacterial activity against Escherichia coli ATCC 25922 assessed as inhibition of bacterial growth incubated for 24 hrs by broth dilution method. Type of series: functional.
Series [7] relates to Erythrocyte. Put plainly: Hemolytic activity in male Sprague-Dawley rat erythrocytes assessed as concentration required for 10% hemolysis incubated for 1 hr by absorbance based method. Type of series: toxicity, cell-based.
A short description of series [8]: Hemolytic activity in male Sprague-Dawley rat erythrocytes at 25 uM incubated for 1 hr by absorbance based method relative to control. To be noted: read-out: Activity. Type of series: toxicity, cell-based, Erythrocyte.

For the compound `C[C@@H](c1ccccc1)N(CC(N)=O)C(=O)CN(C(=O)CN(CCCCN)C(=O)CN(C(=O)CN(C(=O)CN(CCCCN)C(=O)CN(C(=O)CN(C(=O)CN(CCCCN)C(=O)CN(CCc1c[nH]c2ccccc12)C(=O)CN(CCc1c[nH]c2ccccc12)C(=O)CNCCCCN)[C@@H](C)c1ccccc1)[C@@H](C)c1ccccc1)[C@@H](C)c1ccccc1)[C@@H](C)c1ccccc1)[C@@H](C)c1ccccc1`, the values for the MIC in series [1] and in series [6] were under 0.8 µM and 3.1 µM (≈ 5.88 µg/mL), respectively. Moreover, the hemolysis at 1 h, 100 µM in series [2] was found to be 73.9%. Also, the selectivity ratio in series [3] was 2.5. Moreover, in series [4], the HC50 at 1 h was found to be 63.6 µM. Moreover, in series [5], the hemolysis at 1 h, 50 µM amounted to 55.3%. For the same compound, in series [7], the HC10 came out at 7.9 µM. Moreover, the hemolysis at 1 h, 25 µM in series [8] was determined as 33%.
As for `C[C@@H](c1ccccc1)N(CC(=O)N(CCCCN)CC(=O)N(CC(=O)N(CC(=O)N(CCCCN)CC(=O)N(CC(=O)N(CC(N)=O)Cc1ccccc1)Cc1ccccc1)[C@@H](C)c1ccccc1)[C@@H](C)c1ccccc1)C(=O)CN(C(=O)CN(CCCCN)C(=O)CN(Cc1ccccc1)C(=O)CN(Cc1ccccc1)C(=O)CN(CCCCN)C(=O)[C@H](Cc1c[nH]cn1)NC(=O)CNC(=O)CN)[C@@H](C)c1ccccc1` (H-GGH[Nlys][Nphe][Nphe][Nlys][Nspe][Nspe][Nlys][Nspe][Nspe][Nlys][Nphe][Nphe]-NH2), the MIC was 25 µM (≈ 50.4 µg/mL) in series [1] and 12.5 µM (≈ 25.2 µg/mL) in series [6]. Besides, the hemolysis at 1 h, 100 µM in series [2] is 18.4%. The selectivity ratio in series [3] amounted to 4.5. Also, the HC50 at 1 h in series [4] was over 100 µM. For the same compound, in series [5], the hemolysis at 1 h, 50 µM is 8.68%. The HC10 in series [7] is 56.5 µM. For the same compound, the hemolysis at 1 h, 25 µM in series [8] came out at 3.01%.
With `C[C@@H](c1ccccc1)N(CC(N)=O)C(=O)CN(CCCCN)C(=O)CN(CCCCN)C(=O)CN(C(=O)CN(C(=O)CN(CCCCN)C(=O)CN(C(=O)CN(C(=O)CN(CCCCN)C(=O)CN(CCc1c[nH]c2ccccc12)C(=O)CN(CCc1c[nH]c2ccccc12)C(=O)CNCCCCN)[C@@H](C)c1ccccc1)[C@@H](C)c1ccccc1)[C@@H](C)c1ccccc1)[C@@H](C)c1ccccc1`, the MIC in series [1] was 3.1 µM (≈ 5.78 µg/mL); in series [6], 6.3 µM (≈ 11.7 µg/mL). Moreover, the hemolysis at 1 h, 100 µM in series [2] was found to be 11.1%. Further, the selectivity ratio in series [3] turned out to be 13.5. Besides, the HC50 at 1 h in series [4] is over 100 µM. Moreover, in series [5], the hemolysis at 1 h, 50 µM was 8.77%. In addition, in series [7], the HC10 amounted to 75.3 µM. The hemolysis at 1 h, 25 µM in series [8] stood at 4.95%.
For the compound `C[C@@H](c1ccccc1)N(CC(N)=O)C(=O)CN(CCCCN)C(=O)CN(CCCCN)C(=O)CN(C(=O)CN(C(=O)CN(CCCCN)C(=O)CN(C(=O)CN(C(=O)CN(CCCCN)C(=O)CN(CCc1c[nH]c2ccccc12)C(=O)CN(CCc1c[nH]c2ccccc12)C(=O)CN(CCCCN)C(=O)[C@H](Cc1c[nH]cn1)NC(=O)CNC(=O)CN)[C@@H](C)c1ccccc1)[C@@H](C)c1ccccc1)[C@@H](C)c1ccccc1)[C@@H](C)c1ccccc1` (H-GGH[Nlys][Gly(N(CH2)2(3-indolyl))][Gly(N(CH2)2(3-indolyl))][Nlys][Nspe][Nspe][Nlys][Nspe][Nspe][Nlys][Nlys][Nspe]-NH2), the MIC stood at 6.3 µM (≈ 13.3 µg/mL) in series [1] and 25 µM (≈ 52.9 µg/mL) in series [6]. Moreover, the hemolysis at 1 h, 100 µM in series [2] came to 6.4%. In series [3], the selectivity ratio is over 4. Besides, the HC50 at 1 h in series [4] is over 100 µM. Also, the hemolysis at 1 h, 50 µM in series [5] was 5.9%. In series [7], the HC10 is over 100 µM. For the same compound, in series [8], the hemolysis at 1 h, 25 µM stood at 4.98%.
For the compound `C[C@@H](c1ccccc1)N(CC(N)=O)C(=O)CN(C(=O)CN(CCCCN)C(=O)CN(Cc1ccccc1)C(=O)CN(Cc1ccccc1)C(=O)CN(CCCCN)C(=O)CN(Cc1ccccc1)C(=O)CN(Cc1ccccc1)C(=O)CN(CCCCN)C(=O)CN(CCc1c[nH]c2ccccc12)C(=O)CN(CCc1c[nH]c2ccccc12)C(=O)CN(CCCCN)C(=O)[C@H](Cc1c[nH]cn1)NC(=O)CNC(=O)CN)[C@@H](C)c1ccccc1` (H-GGH[Nlys][Gly(N(CH2)2(3-indolyl))][Gly(N(CH2)2(3-indolyl))][Nlys][Nphe][Nphe][Nlys][Nphe][Nphe][Nlys][Nspe][Nspe]-NH2), the MIC is 1.6 µM (≈ 3.35 µg/mL) in series [1] and 12.5 µM (≈ 26.2 µg/mL) in series [6]. The hemolysis at 1 h, 100 µM in series [2] came out at 40.2%. The selectivity ratio in series [3] turned out to be 1.3. In addition, in series [4], the HC50 at 1 h was over 100 µM. Further, the hemolysis at 1 h, 50 µM in series [5] was 25.5%. Also, the HC10 in series [7] is 16.3 µM. In addition, the hemolysis at 1 h, 25 µM in series [8] stood at 13.8%.
Consider `C[C@@H](c1ccccc1)N(CC(=O)N(CCCCN)CC(=O)N(CC(=O)N(CC(=O)N(CCCCN)CC(=O)N(CC(=O)N(CC(=O)N(CCCCN)CC(=O)N(CCc1c[nH]c2ccccc12)CC(=O)N(CCc1c[nH]c2ccccc12)CC(N)=O)Cc1ccccc1)Cc1ccccc1)Cc1ccccc1)Cc1ccccc1)C(=O)CN(Cc1ccccc1)C(=O)CN(CCCCN)C(=O)[C@H](Cc1c[nH]cn1)NC(=O)CNC(=O)CN` (H-GGH[Nlys][Nphe][Nspe][Nlys][Nphe][Nphe][Nlys][Nphe][Nphe][Nlys][Gly(N(CH2)2(3-indolyl))][Gly(N(CH2)2(3-indolyl))]-NH2), for which the MIC was found to be 3.1 µM (≈ 6.44 µg/mL) in series [1] and 12.5 µM (≈ 26 µg/mL) in series [6]. Also, in series [2], the hemolysis at 1 h, 100 µM amounted to 40.6%. Also, the selectivity ratio in series [3] is 1.6. In addition, the HC50 at 1 h in series [4] is over 100 µM. The hemolysis at 1 h, 50 µM in series [5] is 23.9%. For the same compound, the HC10 in series [7] is 20.6 µM. In series [8], the hemolysis at 1 h, 25 µM was determined as 12.7%.
